Experimental data taken from US20260137661A1, “PPAR-ALPHA/GAMMA AGONIST FOR USE IN THE TREATMENT OF LIVER FAILURE” (Genfit, priority 2022, published 2026).

Columns and labels:
[1] = tested on: C57BL/6J male mice; experiment: LPS/GalN mouse model of acute liver failure: serum hepatic markers and cytokines; type: in vivo; conditions: 1 mg/kg/day oral gavage for 3 days before LPS/GalN injection, serum 6 h after LPS/GalN, vs vehicle
From the text: Low doses of LPS in combination with the hepatotoxic agent D-Galactososamine (GalN) promote specific liver injury in mice and induce the inflammatory cytokines production, thus recapitulating the clinical picture of acute liver injury in human (Pourcet et al., Gastroenterology, 2018, 154 (5), p 1449-1464.e20). Hepatic injury induced by LPS/GalN is therefore a widely used mouse model to evaluate the effect of pharmacological agents on acute liver failure.
To evaluate the efficacy of the compounds on liver injury and function and the inflammatory response occurring upon acute liver failure, C57BL/6J male mice (8 weeks old, Janvier Labs) received an intraperitoneal injection of 0.025 mg/kg LPS (Escherichia coli 0111: B4, #L2630, Sigma-Aldrich) supplemented with 700 mg/kg D-Galactosamine (GalN, G0500, Sigma-Aldrich).
Cpd.1 (1 mg/kg/day) or vehicle (carboxymethylcellulose 1%, 0.1% Tween 80) was administered by oral gavage during the three days before LPS/GalN injection (n=10-12 per group). Mice were sacrificed 6h after LPS/GalN injection. Blood samples were obtained from retro-orbital sinus puncture on animals slightly asleep with isoflurane (Isoflurin 1000 mg/g, GTIN 03760087152678, Axience) just before sacrifice. A group of mice (n=4) received an intraperitoneal injection to be used as healthy controls.
Serum aspartate aminotransferase (ASAT) was measured using Randox kit for Daytona Plus automate (AS 8306) according to the manufacturer recommendation. ASAT enzymatically transforms alpha-oxoglutarate and L-aspartate into L-glutamate and oxaloacetate. In the presence of NADH, the generated oxaloacetate is converted by malate dehydrogenase to form L-malate and NAD+. The kinetics of the reaction is studied and allows the concentration of ASAT to be calculated.
Serum alanine aminotransferase (ALAT) was measured using Randox kit for Daytona Plus automate (AL 8304) according to the manufacturer recommendation. ALAT enzymatically transforms alpha-oxoglutarate and L-alanine into L-glutamate and pyruvate. In the presence of NADH, the generated pyruvate is converted by lactate dehydrogenase to form L-lactate and NAD+. The kinetics of the reaction is studied and allows the concentration of ALAT to be calculated.
Serum total bilirubin was measured using Randox kit for Daytona Plus automate (BR 8377) according to the manufacturer recommendation. The bilirubin is oxidized by vanadate at about pH 2.9 to produce biliverdin. In the presence of detergent and vanadate, both conjugate and unconjugated bilirubin are oxidized. This oxidation reaction causes a decrease in the optical density of the yellow color, which is specific to bilirubin. The decrease in optical density at 450/546 nm is proportional to the total bilirubin concentration in the sample.
Serum total bile acids were measured using Randox kit for Daytona Plus automate (BI 3863) according to the manufacturer recommendation. In the presence of Thio-NAD, the enzyme 3-α-hydroxysteroid dehydrogenase (3-α-HSD) converts bile acids to 3-keto steroids and Thio-NADH. In the presence of excess NADH, the enzyme cycling occurs efficiently and the rate of formation of Thio-NADH is determined by measuring specific change of absorbance at 405 nm.
The concentration of serum interleukin-6 (IL6) was determined using a multiplex sandwich ELISA system (Mouse Magnetic Luminex #LSXAMSM-06, Biotechne) according to the manufacturer instructions. […] After washing, IL6 was detected through the addition of biotinylated antibodies. […]

[2] = tested on: HepG2 cell line; experiment: Staurosporine-induced apoptosis in HepG2 cells: caspase 3/7 activity; type: cell-based; conditions: Homo sapiens, 16 h pre-treatment, then 10 μM staurosporin for 4 h, p<0.001
Procedure: In order to evaluate the effect of the compounds to protect hepatocytes from cell death, apoptosis was induced by staurosporine in the human hepatoblastoma-derived HepG2 cell line (ECACC, #85011430, Sigma-Aldrich). HepG2 was cultured in high-glucose DMEM medium (#41965, Gibco, France) supplemented with 10% of fetal bovine serum (FBS, #10270, Gibco), 1% penicillin/streptomycin (#15140, Gibco), 1% sodium pyruvate (#11360, Gibco) and 1% MEM non-essential amino acids (#11140, Gibco) in a 5% CO2 incubator at 37° C.
To evaluate caspase 3/7 activity, which is a surrogate marker of apoptosis, 1.5×10^4 cells were plated in a 384-well plate (#781080, Greiner, France). After cell adherence (8 hours), cells were serum starved for 16h in the presence of compounds (dose ranging from 0.3 to 10 µM) or vehicle. Thereafter, cells were treated with 10 μM staurosporin (#569397, Sigma-Aldrich, Germany) supplemented with compound for additional 4 hours before cell lysis and caspase activity measurement.
Caspase 3/7 activity was measured using Caspase Glow™ 3/7 assay (#G8093, Promega, USA). Luminescence was measured using a Spark microplate reader (#30086376, Tecan, USA). The amount of luminescence (RLU) directly correlates with caspase 3/7 activity.

| Compound | reduction of total bilirubin ([1]; p=0.003) | reduction of total bile acids ([1]; p=0.004) | change of pro-inflammatory cytokine IL6 (serum) ([1]; p=0.01) | decrease of serum ASAT ([1]; p=0.01) | decrease of serum ALAT ([1]; p=0.03) | inhibition at 10 µM ([2]; 10 μM compound) | inhibition at 3 µM ([2]; 3 μM compound) |
| --- | --- | --- | --- | --- | --- | --- | --- |
| CCO[C@@H](Cc1ccc(OCCc2ccc(OS(C)(=O)=O)cc2)cc1)C(=O)O [Cpd. 1, (S)-2-ethoxy-3-(4-(4-((methylsulfonyl)oxy)phenethoxy)phenyl) propanoic acid] | 73% | 79% | −78% | 66% | 57% | 12% |  |
| COc1ccc(OC(=O)N(CC(=O)O)Cc2ccc(OCCc3nc(-c4ccccc4)oc3C)cc2)cc1 [Cpd.2, N-[(4-methoxyphenoxy)carbonyl]-N-[[4-[2-(5-methyl-2-phenyl-4-oxazolyl)ethoxy]phenyl]methyl]glycine] |  |  |  |  |  |  | 24% |
